{
  "source": "paper PMC11997999",
  "about": "“Uncovering α-Selectivity for Liver X Receptor Agonists for Lipotoxic Cancer Therapies” (Journal of Medicinal Chemistry, 2025)",
  "key": {"[1]": {"tested_on": "Hep3B cells", "experiment": "Cell viability analysis in Hep3B cells (CellTiter-Glo)", "assay_type": "cell-based, human", "settings": "5d", "description": "To determine the therapeutic efficacy of compound 40 in HCC cells, we next tested its effect on Hep3B cell viability in combination with the DFG-out Raf inhibitor sorafenib (2 μM).\n(§1) For organoid treatment studies, digestion of organoids was performed using TrypLE Express (Gibco) supplemented with 100 μg/mL DNaseI and 10.5 μM Y-27632 dihydrochloride (Invitrogen) at 37 °C, and afterward, single-cells were plated in white 96 well plates (Sarstedt) in a mixture of 10% Matrigel (Growth Factor Reduced (GFR) Matrigel, Corning) in culture medium. Cell viability was determined after 5 days of treatment using the CellTiter-Glo 3D Cell Viability Assay Kit (Promega). Cell viability of Hep3B, AML12, and BNL CL.2 cells was determined after 5 days of treatment in white 96 well plates (Sarstedt) using the CellTiter-Glo 2.0 Cell Viability Assay Kit (Promega). AML12 and BNL CL.2 cells were also obtained from the American Type Culture Collection. The luminescence signal was measured using an […] M PLEX plate reader (Tecan) and the Tecan i-control software (v3.9.1). Sodium oleate (Selleckchem) was dissolved in methanol and added to cells at a final concentration of 200 μM."}, "[2]": {"tested_on": "BNL CL.2 cells", "experiment": "Cell viability analysis in untransformed liver cells BNL CL.2 (CellTiter-Glo)", "assay_type": "cell-based", "settings": "BNL CL.2, 5d, with 2 μM sorafenib", "description": "To further determine the therapeutic potential of compound 40, we analyzed the effect of a combinatorial lipotoxic therapy with this agonist in untransformed liver cells. We applied the well-established untransformed liver cell lines AML12 and BNL CL.2 and subjected them to treatment with 40 in combination with sorafenib.\nas §1"}, "[3]": {"target": "T1, LXRα (Homo sapiens, UniProt Q13133)", "T1 construct": "To measure the activity of the remaining isoform under treatment; endogenous in cells; host or cells: Hep3B (NR1H2 knockout, LXRE-GFP reporter)", "T1 sequence (Q13133 1-447)": "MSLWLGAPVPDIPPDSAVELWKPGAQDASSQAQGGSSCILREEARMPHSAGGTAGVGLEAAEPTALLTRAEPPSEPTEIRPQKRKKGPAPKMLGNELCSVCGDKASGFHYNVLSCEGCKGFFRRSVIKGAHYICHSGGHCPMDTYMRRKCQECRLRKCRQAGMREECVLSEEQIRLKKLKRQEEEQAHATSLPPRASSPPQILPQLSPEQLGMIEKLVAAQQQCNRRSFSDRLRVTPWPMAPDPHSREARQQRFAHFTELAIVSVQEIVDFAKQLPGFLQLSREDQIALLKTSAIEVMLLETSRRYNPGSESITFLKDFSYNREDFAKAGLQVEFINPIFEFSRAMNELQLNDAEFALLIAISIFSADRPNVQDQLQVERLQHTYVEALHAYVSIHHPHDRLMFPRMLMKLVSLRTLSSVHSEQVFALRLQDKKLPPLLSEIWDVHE", "experiment": "LXRα-specific LXRE-GFP reporter assay in Hep3B cells (NR1H2 knockout)", "assay_type": "cell-based", "settings": "48h of treatment, GFP by FACS"}, "[4]": {"tested_on": "SOD1, GADD34 and CHOP (GADD153)", "experiment": "Western blot of oxidative stress and ER stress response factors in Hep3B cells", "assay_type": "cell-based, human", "settings": "3 days, with 2 μM sorafenib", "description": "Proteins were extracted from cells using RIPA buffer, separated by SDS-PAGE, and transferred to PVDF membranes (Amersham Hybond ECL). For protein detection, membranes were incubated with antibodies against LXRα (Novus Biologicals, NBP2–17186, dilution: 1:1000), LXRβ (Cell Signaling Technology, 13519S, clone: D6M9D, dilution: 1:1000), CHOP (Cell Signaling, 2895 (L63F7), dilution: 1:1000), GADD34 (Proteintech, 10449–1-AP, dilution: 1:1000), SOD1 (ThermoFisher Scientific, MA1–105, clone: 8B10, dilution: 1:1000), α-tubulin (Cell Signaling, 2125 clone: 11H10, dilution: 1:5000), and vinculin (Sigma-Aldrich V9131, clone: hVIN-1, dilution: 1:5000) and visualized using the ChemiDoc MP imaging system (Bio-Rad, ImageLab v5.2.1)."}, "[5]": {"tested_on": "Akt1^Myr; Myc^OE HCC organoids", "experiment": "Cell viability analysis in HCC organoids (CellTiter-Glo 3D)", "assay_type": "cell-based, murine", "settings": "5d, with 4 μM sorafenib", "source_text": "Finally, we analyzed the efficacy of compound 40 in preclinical treatment studies in three-dimensional liver cancer organoid cultures. HCC organoids driven by myristoylated Akt1 and overexpressed Myc (Akt1^Myr; Myc^OE) were isolated from murine liver tumors and subjected to monotherapies of sorafenib, compound 40, or a combination thereof (Figure 7C). The therapeutic outcome was side-by-side compared with combinatorial therapies comprising the established agonists T0901317 (1) and GW3965 (2). […] Isolation of murine HCC organoid cultures was performed from liver tumors derived from C57BL/6 mice using established protocols.[26] The animal experiments were approved by committees of the regional authority of the state of Baden-Wuerttemberg (Regierungspraesidium Tuebingen, authorization number M15/18G) as appropriate. After digestion, the organoids were embedded in 100% Growth Factor Reduced (GFR) MatrigelTM (Corning) and cultured at 37 °C and 5% CO2 in HCC organoid medium supplemented with nicotinamide (10 mM), N-acetylcystein (1.25 mM), human HGF (50 ng/mL), human FGF-10 (100 ng/mL), human R-Spondin (0.5 μg/mL), forskolin (10 μM), A83- 01 (0.5 μM), murine Noggin (50 ng/mL), gastrin I (10 nM), human BMP-7 (25 ng/mL), human Wnt3a (100 ng/mL), B27 supplement (1×) and N2 supplement (1×). The cultures were split by mechanical dissociation every 3 to 4 days. […] Cell viability was determined after 5 days of treatment using the CellTiter-Glo 3D Cell Viability Assay Kit (Promega). Cell viability of Hep3B, AML12, and BNL CL.2 cells was determined after 5 days of treatment in white 96 well plates (Sarstedt) using the CellTiter-Glo 2.0 Cell Viability Assay Kit (Promega). […] The luminescence signal was measured using an […] M PLEX plate reader (Tecan) and the Tecan i-control software (v3.9.1). […]"}},
  "data": [
    {"smiles": "O=C1C(Nc2ccc(N3CCCCC3)cc2)=C(c2ccccc2)C(=O)N1Cc1ccccc1", "note": "[Compound 40, 1-Benzyl-3-phenyl-4-((4-(piperidin-1-yl)phenyl)amino)-1H-pyrrole-2,5-dione]", "values": [
      {"measurement": "effect of sodium oleate on efficacy of the combination with sorafenib", "setting": "[1]; 2 μM sorafenib ± 200 μM sodium oleate", "result": "strongly diminished the therapeutic efficacy"},
      {"measurement": "therapeutic effect on cell viability, monotherapy", "setting": "[1]; without sorafenib", "result": "did not show a significant therapeutic effect"},
      {"measurement": "sensitivity of untransformed liver cells to combination therapy (cell viability)", "setting": "[2]", "result": "only very low sensitivity"},
      {"measurement": "EC50", "setting": "[3]", "result": 27, "unit": "nM"},
      {"measurement": "induction of SOD1, GADD34 and CHOP", "setting": "[4]", "result": "strong induction of all factors"},
      {"measurement": "therapeutic efficacy (cell viability) in combination with sorafenib", "setting": "[5]", "result": "further improved therapeutic efficacy"}
    ]}
  ]
}
